Measurements taken from article PMC2719696, “Kinetics and Cellular Site of Glycolipid Loading Control the Outcome of Natural Killer T Cell Activation” (Immunity, 2009).

Assays:
[1] = target: T1, hCD1d (Homo sapiens, UniProt P15813); assay: Loading of hCD1d tetramers with or without 0.05% Triton X-100, staining of hybridoma DN3A4.1-2; assay type: binding
T1 construct: made in house
Source text: The efficient loading of CD1 molecules with lipids such as αGalCer-C26:0 is known to involve cofactors that enhance the transfer of lipids from micelles or membranes into the antigen-binding groove of the CD1 protein. The best known of these cofactors are resident intracellular lipid binding and transfer proteins including those belonging to the saposin family, GM2 activator proteins, and Niemann-Pick type C1 and C2 proteins ([Zhou et al., 2004; Sagiv et al., 2006; Yuan et al., 2007; Schrantz et al., 2007]). Most of these are known to have detergent-like activities that facilitate solubilization of lipids and their exchange between hydrophobic binding sites. […]
Figure 5 Lack of Detergent-like Cofactor Dependence of Th2 Cell-Type Cytokine-Biasing αGalCer Analogs (A) Glycolipids were incubated for 24 hr at 37°C with murine CD1d proteins in the absence (top row) or presence (bottom row) of 0.05% Triton X-100. […] After washing, DN32.D3 iNKT hybridoma cells were added and supernatant concentrations of IL-2 were determined after an additional 14 hr of incubation. […]
Recombinant CD1d proteins were produced and assembled into tetramers for staining as previously described ([Forestier et al., 2007]). […] All samples were analyzed with the FACSCalibur flow cytometer (BD Biosciences).

[2] = system: detergent-resistant membrane microdomains; assay: Flow cytometry assay of αGalCer-mCD1d complex association with detergent-resistant membrane microdomains (JAWS II cells); assay type: cell-based, mouse; details: 0.1% Triton X-100
Description: The scale bar represents 10 μm. Results shown for individual cells were typical of >20 cells analyzed for each parameter with or without incubation with the indicated glycolipids. (B) Quantitation of colocalization shown in (A) for multiple randomly selected individual cells. Pearson correlation coefficient for the distribution of pixel densities for K253 or L363 fluorescence compared to cholera toxin B-specific fluorescence are plotted for each individual cell analyzed. Values for p were determined by one-way ANOVA. (C) Flow cytometry assay for αGalCer-mCD1d complex association with detergent-resistant membrane microdomains. […] Baseline fluorescence levels were recorded for 15 s, after which Triton X-100 was added to 0.1% (arrow) and recording was resumed for another ∼60 s. Each symbol indicates mean fluorescence intensity (MFI) averaged over 1 s of recording. […]
Another property of lipid rafts is their resistance to solubilization by nonionic detergents due to their enrichment in cholesterol, sphingomyelin, and saturated acyl chains ([Pike, 2008]). To assess the localization of αGalCer-mCD1d complexes in detergent insoluble microdomains, we used a flow-cytometry-based assay that quantitates the resistance of lipid-raft-associated transmembrane proteins to extraction by low concentrations of Triton X-100 ([Gombos et al., 2004a; Peng et al., 2007]). […]

T1 sequence (P15813 20-301 limits assumed): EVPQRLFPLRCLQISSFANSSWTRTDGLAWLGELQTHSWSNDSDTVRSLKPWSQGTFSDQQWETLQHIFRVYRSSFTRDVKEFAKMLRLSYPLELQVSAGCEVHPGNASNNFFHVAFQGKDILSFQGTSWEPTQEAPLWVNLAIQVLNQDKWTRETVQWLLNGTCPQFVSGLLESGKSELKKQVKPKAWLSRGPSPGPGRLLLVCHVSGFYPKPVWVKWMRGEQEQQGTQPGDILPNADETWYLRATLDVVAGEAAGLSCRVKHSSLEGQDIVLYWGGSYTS
T1 sequence (P61769 21-119 partner): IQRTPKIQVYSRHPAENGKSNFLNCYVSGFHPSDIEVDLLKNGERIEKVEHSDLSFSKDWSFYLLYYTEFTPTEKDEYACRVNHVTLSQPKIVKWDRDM

Structure (SMILES): CCCCCCCCCCCCCCCCCCCCCCCC(=O)NC(COC1OC(CO)C(O)C(O)C1O)C(O)C(O)CCCCC (stereo not drawn) [OCH]
- formation of hCD1d tetramers with iNKT cell-binding avidity [1]: failed to form hCD1d tetramers with iNKT cell-binding avidity under any conditions

Structure (SMILES): CCCCCCCCCCCCCCC(O)C(O)C(COC1OC(CO)C(O)C(O)C1O)NC(=O)CCCCCCCCC (stereo not drawn) [αGalCer-C10:0]
- extraction of mCD1d complexes (L363 staining) by detergent, in words [2]: mainly localized to detergent soluble nonraft domains

Structure (SMILES): CCCCCC=CCC=CCCCCCCCCCC(=O)NC(COC1OC(CO)C(O)C(O)C1O)C(O)C(O)CCCCCCCCCCCCCC (stereo not drawn) [αGalCer-C20:2]
- extraction of mCD1d complexes (L363 staining) by detergent, in words [2]: significant extraction by detergent
